Experimental data: patent US11504340B2, “Ocular compositions” (THE QUEEN'S UNIVERSITY OF BELFAST, priority 2017, dated 2022)

Test: Stability of dexamethasone in phosphate buffer for long term release
Format: physicochemical

stability in phosphate buffer for long term release: instability
Compound: C[C@@H]1C[C@H]2[C@@H]3CCC4=CC(=O)C=C[C@]4(C)[C@@]3(F)[C@@H](O)C[C@]2(C)[C@@]1(O)C(=O)CO [dexamethasone]
